Experimental data from patent US12060408B2, “Screening assays, modulators and modulation of activation of Receptor for Advanced Glycation End-products (RAGE)” (Monash University, priority 2017, dated 2024).

Legend:
apoE KO mice [1] = assay: Aortic plaque area quantitation (Sudan IV staining of aortic arch); assay type: in vivo, mouse
Text: C57bl6 mice, AGER knockout (KO) mice, apoE KO mice, AGER/apoE double knockout (DKO), Ace2/apoE DKO and AGER/Ace2/apoE triple knockout (TKO) mice were sourced and generated in-house at the AMPREP animal house. All mice were bred on a C57bl6 background. For experimental studies, male mice aged 6-8 weeks and weighing between 20-25 g were used, with at least 8 animals per group for in vivo studies and n=6/group for ex vivo studies. Throughout the study animals were given access to mouse chow and water ad libitum. All experiments were approved by the animal ethics committee of the Alfred Medical Research Precinct and conducted in accordance with the Guide for the Care and Use of Laboratory Animals published by the US National Institutes of Health (NIH Publication No. 85-23, revised 1996).
Aortic Plaque Area Quantitation Method
Aortic arches were removed from mice, cleaned of excess fat, placed in 10% neutral buffered formalin and subsequently stained with Sudan IV-Herxheimer's solution (0.5% w/vol; Gurr, BDH Limited, Poole, UK). Aortae were then dissected longitudinally, and pinned flat onto a wax pad. Plaque accumulation across the aortic arch was quantitated as the percentage area stained red.
Angiotensin Infusion Model […]

apoE KO mice [2] = assay: Aortic expression of pro-inflammatory mediators by quantitative real-time PCR (aortic homogenates); assay type: in vivo, mouse; conditions: four-week infusion 1 μg/kg/min
Experimental: Aortic Expression of Pro-Inflammatory Mediators by Quantitative Real-Time PCR
At the end of each study period, thoracic and abdominal aortae were placed in TRIZOL, snap frozen and stored at −80° C. RNA extraction and cDNA synthesis was performed in aortic homogenates using the Trizol method. Gene expression of pro-atherogenic mediators including adhesion molecules, cytokines, inflammatory, oxidative stress and macrophage markers, were estimated in aortic homogenates by quantitative real-time RT-PCR, performed using the TaqMan system based on real-time detection of accumulated fluorescence (ABI Prism 7700, Perkin-Elmer Inc, PE Biosystems, Foster City, CA, USA). Gene expression was normalized to 18S mRNA and reported as fold change compared to the level of expression in untreated control mice/cells, which were given an arbitrary value of 1.

PMAEC = assay: Static adhesion assay (labelled THP-1 cells on PMAEC monolayer); assay type: cell-based, mouse; conditions: PMAEC from C57bl6 mice, 1 μM
Experimental: Functional responsiveness to Ang II was determined in PMAEC using a static adhesion assay, in which PMAEC were seeded at 50,000 cells per well into six-well plates and allowed to grow to 70% confluency before treatment with 1 μM Ang II for 24 hours. Human THP-1 cells, which mimic monocytes and macrophages in the vasculature, were stained using CellVue Burgundy Fluorescent Cell labelling Kit (LICOR) as per manufacturer's instructions before seeding them onto the endothelial cell monolayers at 3×10^5 viable cells per well and incubated for 20 minutes at 37° C. The cells that had not adhered to the endothelial cell monolayer were removed and the wells washed with PBS before fixing with 4% formalin in PBS for 30 min. The adhesion of cells was then quantitated using the ODYSSEY infra-red imager (Licor). Additionally adhered cells were photographed at ×20 using light microscopy (Olympus CKX41).

AT1 receptor = AT1 receptor (Homo sapiens, UniProt P30556); assay: Receptor-HIT BRET, β-arrestin2/Venus with RAGE/Rluc8 and AT1 receptor; assay type: cell-based
Experimental: The BRET ratio was calculated by subtracting the ratio of ‘acceptor emission’ over ‘donor emission’ for a cell sample expressing Rluc8-tagged protein alone from the same ratio for a cell sample expressing both Rluc8 and Venus-tagged proteins. Alternatively, the ligand-induced BRET signal was calculated by subtracting the ratio of ‘acceptor emission’ over ‘donor emission’ for a vehicle-treated cell sample from the same ratio for a second aliquot of the same cells treated with agonist.
The fluorescence/luminescence ratio was generated by dividing the fluorescence values in arbitrary units (obtained with the EnVision) by the luminescence values also in arbitrary units (obtained as part of the BRET assay).

AT1 = target: T1, AT1 (Homo sapiens, UniProt P30556); assay: Classical GPCR signalling (IP-one HTRF, EGR1) in AT1R-CHO cells; assay type: cell-based; design: expressed in transfected cells; conditions: 1 μM
T1 sequence (P30556 1-359): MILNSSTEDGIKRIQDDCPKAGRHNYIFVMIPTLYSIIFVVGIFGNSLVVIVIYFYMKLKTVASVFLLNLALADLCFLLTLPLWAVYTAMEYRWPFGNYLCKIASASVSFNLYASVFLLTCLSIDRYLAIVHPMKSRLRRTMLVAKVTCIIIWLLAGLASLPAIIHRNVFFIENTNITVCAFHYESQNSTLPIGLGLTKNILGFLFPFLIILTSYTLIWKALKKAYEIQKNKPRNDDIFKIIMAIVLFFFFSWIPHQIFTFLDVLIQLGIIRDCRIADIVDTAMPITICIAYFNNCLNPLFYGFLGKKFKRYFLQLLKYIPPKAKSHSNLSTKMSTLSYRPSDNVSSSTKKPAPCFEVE
Experimental: Generation of Transgenic Chinese Hamster Ovary Cells
100 ng of AT1R-Rluc8 construct was transfected into CHO cells using Lipofectamine 2000 (Thermo). Stable transfectants were selected using G418. AT1R—CHO were then transiently transfected with RAGE constructs using Lipofectamine 2000 (Invitrogen) and incubated for 16 h.
Classical GPCR Signalling

Chain of AT1 receptor (P32121 whole entry partner, one chain of several): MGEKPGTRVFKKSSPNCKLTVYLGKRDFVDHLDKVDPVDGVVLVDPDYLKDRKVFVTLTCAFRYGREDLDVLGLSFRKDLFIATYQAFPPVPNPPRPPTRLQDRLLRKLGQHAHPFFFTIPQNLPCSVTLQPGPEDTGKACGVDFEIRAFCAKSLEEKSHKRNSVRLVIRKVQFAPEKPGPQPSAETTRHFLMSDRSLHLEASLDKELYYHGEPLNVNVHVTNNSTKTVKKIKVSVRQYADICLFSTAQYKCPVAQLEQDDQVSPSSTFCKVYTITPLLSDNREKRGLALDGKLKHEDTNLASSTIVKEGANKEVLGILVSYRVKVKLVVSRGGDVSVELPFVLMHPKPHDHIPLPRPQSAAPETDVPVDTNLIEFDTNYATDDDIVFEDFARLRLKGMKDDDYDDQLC

## angiotensin II (DRVYIHPF) [Ang II, cognate ligand of AT1R]
apoE KO mice [1]; AGER/apoE DKO mice, four-week infusion 1 μg/kg/min
  atherogenesis (plaque area): prevents the increase in atherogenesis
apoE KO mice [1]; apoE KO mice, four-week infusion 1 μg/kg/min vs untreated
  atherogenesis (percentage of the aortic arch surface area staining positive to Sudan IV): increases atherogenesis
apoE KO mice [2]; AGER/apoE DKO mice
  aortic expression of pro-atherogenic mediators: preventing
apoE KO mice [2]; apoE KO mice
  aortic expression of genes coding for pro-atherogenic mediators: increases
PMAEC
  adhesion of labelled THP-1 cells to PMAEC monolayer: increased adhesion
AT1 receptor; control
  recruitment of βarrestin2/Venus to AT1/Rluc8: recruitment
AT1 receptor; in the presence of AT1 receptor
  recruitment of β-arrestin2/Venus proximal to RAGE/Rluc8: recruitment
AT1
  classical responsiveness: inositol phosphate synthesis and EGR1 induction: induction
